The values that follow come from paper PMC5700813, “A recombinant BBSome core complex and how it interacts with ciliary cargo” (eLife, 2017).

The chains are these.
B1: Arl6•GppNHp: Arl6 (residues 17–186, Q73L, C-terminal Strep-tag) with the nucleotide exchanged to GppNHp (protein)
chain: EVHVLCLGLDNSGKTTIINKLKPSNAQSQNILPTIGFSIEKFKSSSLSFTVFDMSGLGRYRNLWEHYYKEGQAIIFVIDSSDRLRMVVAKEELDTLLNHPDIKHRRIPILFFANKMDLRDAVTSVKVSQLLCLENIKDKPWHICASDAIKGEGLQEGVDWLQDQIQTVKT
modifications: left off: Strep-tag, C-terminal, kept
notes: Arl6 (residues 17–186, Q73L, C-terminal Strep-tag) with the nucleotide exchanged to GppNHp
B2: Arl6•GDP: Arl6 (residues 17–186, Q73L, C-terminal Strep-tag) with the nucleotide exchanged to GDP (protein)
chain: B1 chain
modifications: left off: Strep-tag, C-terminal, kept
notes: Arl6 (residues 17–186, Q73L, C-terminal Strep-tag) with the nucleotide exchanged to GDP

Entries after “also recorded” stand apart in the source; their conditions may differ. Ends that are not written are not given here. Peptide text beside a SMILES is read from it. Where only a bound is given, the exact number is not on record here.

One test has as its system core BBSome. As to the kind of experiment: Pulldown of core BBSome with immobilized bait on Streptactin beads. The format is binding, human. The conditions noted are these: 7.5 fold molar excess of bait immobilized to Streptactin-coupled Sepharose beads. The source says: From previous data, BBS1 seems to be the BBSome subunit most relevant for cargo recognition and Arl6 binding. We first tested the binding of Arl6 to the BBSome core complex. […] To test whether the core BBSome can recognize known BBSome cargo proteins, we generated a truncated (residues R546-L665) version of the Smo receptor, which contains a ciliary targeting motif predicted to interact with the BBSome ([Zhang et al., 2012a]; [Seo et al., 2011]; [Corbit et al., 2005]). In pulldown experiments as described above (Figure 3), the binding was clearly detectable, but considerably weaker than that of Arl6•GppNHp. In fluorescence polarization experiments (see below), we determined the affinity for a fluoresceine-labeled version of this Smo fragment to be 36.1 ± 3.9 µM.
Figure 3. Pulldown of core BBSome with immobilized Arl6 and Smoothened domain R546-L665. Purified core BBSome samples were pulled down by a 7.5 fold molar excess of Arl6•GDP, Arl6•GppNHp or Smo(R546-L665) immobilized to Streptactin-coupled Sepharose beads. […] Smo(R546-L665) bound weaker, but still captured >2% of the BBSome sample. This was approximated by a comparison of the 1:50 diluted Arl6•GppNHp elution with the undiluted Smo(R546-L665) elution in a Flag-blot against Flag-BBS8 from the BBSome core complex.
Pulldown assays were performed using 20 µl Strep-Tactin Superflow high capacity resin (IBA, Germany) per assay equilibrated with pulldown buffer (50 mM Hepes pH 8.0, 150 mM NaCl, 5 mM MgCl2, 5 mM ß-ME and 0.05% DDM). Smo(R546-L665, N-terminal Strep-tag) and Arl6 (residues 17–186, Q73L, C-terminal Strep-tag, with the nucleotide exchanged to either GDP or GppNHp) was immobilized as the bait, and the 6mer BBSome core complex served as the prey (The dual-Strep-tag on BBS18 within the complex was completely removed by Prescission protease cleavage for this experiment). 35 µg of the bait proteins were incubated with the beads in 1 ml pulldown buffer at 4°C for 1 hr, and the unbound protein was washed away with 3 × 1 ml pulldown buffer. […]
For the molecule B1, the “pulldown of core BBSome (result in words)” value (from here on “pulldown of core BBSome”) is recorded as “precipitated the major part of the BBSome”.

As to B2, the “pulldown of core BBSome” value is “no detectable affinity; also recorded: no interaction”.

The test is the same for the next values; noted with them: 7.5 fold molar excess of bait immobilized to Streptactin-coupled Sepharose beads; listed as Arl6•GppNHP.
B1: the “pulldown of core BBSome” value is recorded as “captured most of the BBSome sample”.

In the next test the test system is T1, core BBSome (BBS1,4,5,8,9,18).
T1 construct: His-tag; made in house; host or cells: Hi5 insect cells (baculovirus)
T1 sequence (Q8NFJ9 whole entry, stated change not applied): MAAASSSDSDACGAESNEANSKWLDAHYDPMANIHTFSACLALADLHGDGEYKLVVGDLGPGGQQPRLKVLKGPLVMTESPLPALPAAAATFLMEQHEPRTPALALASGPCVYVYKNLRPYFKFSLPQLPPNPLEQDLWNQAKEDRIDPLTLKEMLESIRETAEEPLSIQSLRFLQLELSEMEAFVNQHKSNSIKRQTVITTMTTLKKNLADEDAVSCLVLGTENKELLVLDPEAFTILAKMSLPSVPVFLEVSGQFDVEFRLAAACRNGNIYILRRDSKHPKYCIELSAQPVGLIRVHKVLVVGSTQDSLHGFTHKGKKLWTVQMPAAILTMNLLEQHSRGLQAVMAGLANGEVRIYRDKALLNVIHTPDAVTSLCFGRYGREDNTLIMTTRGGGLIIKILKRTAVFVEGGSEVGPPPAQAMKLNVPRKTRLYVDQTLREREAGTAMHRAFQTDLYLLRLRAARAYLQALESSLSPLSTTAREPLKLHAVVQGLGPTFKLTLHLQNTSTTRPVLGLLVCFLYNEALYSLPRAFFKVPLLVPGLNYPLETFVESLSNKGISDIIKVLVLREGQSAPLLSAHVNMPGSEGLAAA
T1 sequence (Q96RK4 whole entry, stated change not applied, further chain): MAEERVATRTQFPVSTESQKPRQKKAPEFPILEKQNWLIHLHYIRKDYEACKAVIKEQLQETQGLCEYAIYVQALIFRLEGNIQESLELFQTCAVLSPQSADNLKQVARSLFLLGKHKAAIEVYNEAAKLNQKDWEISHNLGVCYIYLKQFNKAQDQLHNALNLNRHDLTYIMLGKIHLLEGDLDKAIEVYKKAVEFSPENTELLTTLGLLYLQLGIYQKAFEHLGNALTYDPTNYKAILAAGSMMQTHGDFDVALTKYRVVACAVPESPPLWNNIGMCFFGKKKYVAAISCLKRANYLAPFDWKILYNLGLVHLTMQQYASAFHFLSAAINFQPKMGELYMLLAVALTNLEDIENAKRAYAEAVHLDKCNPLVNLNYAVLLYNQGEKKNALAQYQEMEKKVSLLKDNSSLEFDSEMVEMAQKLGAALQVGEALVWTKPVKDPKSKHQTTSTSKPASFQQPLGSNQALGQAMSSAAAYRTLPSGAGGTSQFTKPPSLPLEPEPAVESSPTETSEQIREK
T1 sequence (Q8N3I7 whole entry, stated change not applied, further chain): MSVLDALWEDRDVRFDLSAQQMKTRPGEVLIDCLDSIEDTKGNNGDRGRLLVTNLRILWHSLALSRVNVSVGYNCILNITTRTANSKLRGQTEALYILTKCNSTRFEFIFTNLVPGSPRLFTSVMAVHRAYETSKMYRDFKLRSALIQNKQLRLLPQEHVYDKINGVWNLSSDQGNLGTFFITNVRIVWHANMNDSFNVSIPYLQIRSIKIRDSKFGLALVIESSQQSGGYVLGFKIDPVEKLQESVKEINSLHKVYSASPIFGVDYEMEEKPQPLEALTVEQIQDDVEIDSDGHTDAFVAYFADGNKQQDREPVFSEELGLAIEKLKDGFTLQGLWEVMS
T1 sequence (Q8TAM2 with tags, fused parts or gaps isoform Q8TAM2-4 DEL39-48, further chain): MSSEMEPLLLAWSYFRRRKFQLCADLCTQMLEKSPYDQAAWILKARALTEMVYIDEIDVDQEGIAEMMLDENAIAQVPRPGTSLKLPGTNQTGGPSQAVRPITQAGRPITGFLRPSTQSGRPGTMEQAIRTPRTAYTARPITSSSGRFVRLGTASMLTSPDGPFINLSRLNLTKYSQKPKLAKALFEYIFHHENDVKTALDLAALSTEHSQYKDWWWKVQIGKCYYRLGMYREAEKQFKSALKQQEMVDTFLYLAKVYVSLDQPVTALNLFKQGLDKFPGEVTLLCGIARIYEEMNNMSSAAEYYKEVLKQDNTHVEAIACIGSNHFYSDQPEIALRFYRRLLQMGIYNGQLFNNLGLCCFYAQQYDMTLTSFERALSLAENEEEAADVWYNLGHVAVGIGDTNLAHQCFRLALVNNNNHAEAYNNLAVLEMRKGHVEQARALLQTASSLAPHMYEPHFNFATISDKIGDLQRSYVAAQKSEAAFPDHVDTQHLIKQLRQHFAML
T1 sequence (Q3SYG4 whole entry, stated change not applied, further chain): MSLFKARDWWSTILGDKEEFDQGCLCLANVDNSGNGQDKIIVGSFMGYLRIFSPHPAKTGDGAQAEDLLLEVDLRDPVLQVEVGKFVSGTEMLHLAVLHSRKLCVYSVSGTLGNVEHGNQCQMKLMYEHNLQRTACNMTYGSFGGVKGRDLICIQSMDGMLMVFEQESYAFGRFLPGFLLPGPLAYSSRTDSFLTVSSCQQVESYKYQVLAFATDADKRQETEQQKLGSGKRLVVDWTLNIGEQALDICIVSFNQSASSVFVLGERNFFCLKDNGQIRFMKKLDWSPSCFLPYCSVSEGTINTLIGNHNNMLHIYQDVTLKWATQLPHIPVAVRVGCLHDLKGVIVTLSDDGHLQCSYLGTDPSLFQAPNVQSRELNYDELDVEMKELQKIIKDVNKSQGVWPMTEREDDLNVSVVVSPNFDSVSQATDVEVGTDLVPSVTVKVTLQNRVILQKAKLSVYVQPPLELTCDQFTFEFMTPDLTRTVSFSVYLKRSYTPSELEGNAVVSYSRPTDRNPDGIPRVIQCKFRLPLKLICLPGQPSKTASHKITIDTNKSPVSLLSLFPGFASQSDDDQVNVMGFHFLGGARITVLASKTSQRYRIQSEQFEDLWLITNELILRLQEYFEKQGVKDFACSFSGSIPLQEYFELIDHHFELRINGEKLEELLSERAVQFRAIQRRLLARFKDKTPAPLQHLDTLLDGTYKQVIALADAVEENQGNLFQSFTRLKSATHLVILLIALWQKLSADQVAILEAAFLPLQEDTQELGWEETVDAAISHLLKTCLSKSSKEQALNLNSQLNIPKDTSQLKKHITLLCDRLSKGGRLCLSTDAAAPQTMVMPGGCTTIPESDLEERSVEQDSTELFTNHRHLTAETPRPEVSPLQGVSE
T1 sequence (A8MTZ0 whole entry partner): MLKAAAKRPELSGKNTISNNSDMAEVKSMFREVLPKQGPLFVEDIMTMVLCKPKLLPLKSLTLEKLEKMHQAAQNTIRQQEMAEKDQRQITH
Description: Fluorescence polarization binding of fluorescently labeled peptides to the core BBSome.
Conditions: not given
Further details: species or system human. The source says:
Our microarray data indicated multiple closely spaced binding epitopes in several cases. Where possible, we combined those epitopes into a single fluorescent peptide with up to 37 residues length to more fully reflect the binding site/motif. […] Cargo binding to the core BBSome with fluorescence polarization, measured by using fluorescently labeled peptides and the purified core BBSome. […] All peptides were N-terminally labeled with fluorescein, with an exception of a C-terminally TMR-labeled SSTR3 CT1 peptide (orange squares) that was used as a control to exclude nonspecific binding events due to the used fluorophore. […] (Data points exceeding this mark might indicate secondary binding events at high BBSome concentrations). (C) Fluorescent peptides from the C-terminus of Smo (Smo CT1-4) and a truncated Smoothened construct (Smo […]-[…]) were analyzed as described above. (D) The peptide SSTR3 CT2 that bound with highest affinity to the core BBSome was used as a template for the design and analysis of mutant peptides (SSTR3 CT3-9) with substitutions of one or multiple residues as indicated. Polarization experiments were performed as described above and dissociation constants (KD) are presented as ratios to the KD of the wild type peptide as a bar diagram. (E) Bar diagram of the relative affinities of SmoCT1 and CT3 relative to SmoCT4, as determined in C, and of mutant Smo CT4 peptides with substitutions as indicated. […] Cargo binding to the core BBSome. […] Core BBSome was added at the indicated concentrations and the increase in fluorescence polarization was monitored as a measure for the peptides binding to the protein complex. […] Mutational analysis of the BBSome binding peptides. […] The peptides SSTR3 CT2 (A) and of Smo CT4 (B) that bound with highest affinity to the core BBSome were used as templates for the design of mutant peptides with one or multiple aromatic/basic residue motifs changed to alanines as summarized in Table 1. Core BBSome was added at the indicated concentrations and the increase in fluorescence polarization was monitored as a measure for the peptides binding to the protein complex. […] Fluorescently labeled peptides were purchased from Proteogenix (Proteogenix SAS, France). Fluorescein-labels are located N-terminally to the peptide sequence and TAMRA at the C-terminal side. Fluorescence polarization experiments were performed using a Fluoromax-4 spectrophotometer (HORIBA Jobin Yvon, Germany) or a Safire two multimode plate reader (Tecan, Switzerland). Fluoresceine-labeled samples were measured with excitation/emission wavelengths of λEx = 490 nm and λEm = 520 nm with a bandwidth of 7 nm on the Fluoromax-4. […] Sample volumes were 20 μl in a 1,5 × 1,5 mm cuvette (Hellma Analytics, Germany) for the Fluoromax-4 and 4.5 μl in a 384 well low-binding plate (Corning, Germany). Data analysis was done with the Origin 9.0 program suite (Originlab, Northampton, MA). The polarization curves were fit against the function FI = Fmin […] Fmax corresponding to the fluorescence polarization signal and the signal of unbound and completely saturated fluorescent molecule E with interaction partner L, respectively. The concentrations of molecule E are indicated in the corresponding figure legends, and the calculated dissociation constants KD are listed in Table 1.
In the case of KRIKKSKMIAKAFSK [Smo CT2], the “binding to core BBSome (result in words)” value is listed as “only weak interaction”.

Still in this test, the particulars now being: N-terminally fluorescein-labeled peptide 0.1–1 µM titrated with purified core BBSome, fitted to binding curve.
The Kd is the equilibrium constant for the complex coming apart. Turning to TLLIAARTAARLTGQSDDE [Smo CT7], binding was put at a Kd of 14.3 µM.

The same test, now with this note: N-terminally fluorescein-labeled peptide 0.1–1 µM titrated with purified core BBSome, fitted to binding curve, read-out: KD (converted).
Take `CC(C)C[C@H](NC(=O)[C@H](C)NC(=O)[C@H](CCCNC(=N)N)NC(=O)[C@H](CCCCN)NC(=O)[C@H](Cc1ccccc1)NC(=O)[C@H](CC(=O)O)NC(=O)[C@@H](N)CCCNC(=N)N)C(=O)NCC(=O)N[C@@H](CCCNC(=N)N)C(=O)N[C@@H](Cc1ccccc1)C(=O)N[C@@H](CC(C)C)C(=O)N1CCC[C@H]1C(=O)N[C@@H](CS)C(=O)N1CCC[C@H]1C(=O)N[C@@H](CCCNC(=N)N)C(=O)N[C@@H](CS)C(=O)N1CCC[C@H]1C(=O)N[C@@H](CCCNC(=N)N)C(=O)N[C@@H](CCC(=O)O)C(=O)N[C@@H](CCCNC(=N)N)C(=O)O` [5HT6 CT] (H-RDFKRALGRFLPCPRCPRER-OH): the Kd was 44.2 ± 10.9 µM.

For the molecule FIFRVARVKARKVHCG [GPR161 3ICL], the Kd is 6.3 ± 1.5 µM.

GFLSAAAAQGAARVLLRPSRRVRS [SSTR3 CT8]: the Kd is 11 µM.

For GFLSAAAAQGFRRVLLRPSRRVRS [SSTR3 CT7], the Kd was 1 µM.

As for GFLSAAFKQGAARVLLRPSRRVRS [SSTR3 CT6], the Kd is 4.5 µM.

For GFLSAAFKQGFRRVLLRPSRRVRS [SSTR3 CT3], the Kd is 1.1 µM.

For GFLSYRAAQGFRRVLLRPSRRVRS [SSTR3 CT4], the Kd is 0.4 µM.

Regarding GFLSYRFKQGAARVLLRPSRRVRS [SSTR3 CT5], the Kd is 1.5 µM.

On to GFLSYRFKQGFRRVLLRPSEEVES [SSTR3 CT9], for which the Kd was 4.7 µM.

Regarding GFLSYRFKQGFRRVLLRPSRRVRS [SSTR3 CT2], the equilibrium dissociation constant (Kd) is 0.11 µM.

In the case of “GRGSAAARSRYTCRLQQHDRGRRQ [NMU 3ICL2, N-terminally fluorescein-labeled peptide from the third intracellular loop of NMU-R1]”, the Kd was greater than 100 µM.

Regarding KRIKKSKMIAKAFSK [Smo CT2], the Kd was greater than 100 µM.

As to KRLGRKKKRRKRKKE [Smo CT8], the Kd is 6.8 µM.

With LLIGLRLRRERLLLMQEAKGRG [NMU 3ICL1], the Kd was 18.1 ± 1.6 µM.

For “NKTVRKELLGMCFGDRYYREPFVQRQR [GPR161 CT1]”, the Kd was 67.4 ± 7.3 µM.

Turning to RFKQGFRRVLLRPSR [SSTR3 CT1], the Kd was 22.1 ± 1.4 µM.

RILQRMTSSVAPASQRSIRLRTKRVTRT [MCH 3ICL]: the Kd is 68.8 ± 11.3 µM.

TLLIAARTWCRLTGQSDDE [Smo CT5]: the equilibrium dissociation constant (Kd) was 9.7 µM.

For the molecule TLLIWRRTAARLTGQSDDE [Smo CT6], the Kd is 12.5 µM.

For the molecule TLLIWRRTWCRLTGQ [Smo CT1], the Kd was 1.8 ± 0.5 µM.

As to TLLIWRRTWCRLTGQSDDE [Smo CT4], the Kd is 1.1 µM.

Take “TLLIWRRTWCRLTGQSDDEPKRIKKSKMIAKAFSKRH [Smo CT3]”: the Kd is 1.4 µM.

Turning to “VKVRSAGRRVWAPSCQRRRRSERRVTRM [SSTR3 3ICL]”, the Kd is 12.8 ± 1.07 µM.

Consider “VTARTVPGGGFGGRRGSRTLVS [GPR161 CT2, N-terminally fluorescein-labeled peptide from the C-terminal region of GPR161]”, for which the Kd was greater than 100 µM.
